Assay results from patent US9694090B2, “Process for preparing hyperpolarized substrates and method for MRI” (priority 2010, dated 2017).

How the values were obtained:
[1] = Glass formation of the DNP preparation upon rapid freezing in liquid nitrogen; format: physicochemical; details: for Glass formation upon rapid freezing in liquid nitrogen: dissolved in 12 M NaOH with radical 1; for Glass formation upon rapid freezing: with trityl radical, without addition of glass-forming agents
Protocol: Butyric acid (11.7 mg, 0.13 mmol) was placed into an Eppendorf tube and mixed with 9.0 mg of a glycerol solution containing 39 mM of Radical 1. This preparation was 7 M with respect to butyric acid.
Butyric anhydride (40 μl, 0.24 mmol) was added to an Eppendorf tube and mixed with 1 mg of Radical 3 in a total concentration of 15 mM. This preparation was 6.5 M with respect to butyric anhydride (which, upon hydrolysis provides a 13 M concentration in butyric acid molecules).
Butyric acetic anhydride (36 μl, 0.28 mmol) was added to an Eppendorf tube and mixed with 0.85 mg of acid form of Radical 3 in a total concentration of 15 mM. This preparation was 7.5 M with respect to butyric acetic acid.
Li-acetoacetate (22.4 mg, 0.21 mmol) was added to an Eppendorf tube and mixed with 28 μl of a DMSO preparation (25 mM Radical 3 and 0.8 mM 3-Gd). This preparation was 4 M with respect to Li-acetoacetate.
To an Eppendorf tube was added diketene (9.6 mg, 0.11 mmol) and mixed with 4.7 mg of a DMSO preparation of Radical 3 (45 mM) and 3-Gd (1.5 mM). This preparation was 8.5 M with respect to diketene.
Ethyl acetoacetate (45 μl, 0.34 mmol) was added to an Eppendorf tube and mixed with acid form of Radical 2 (0.7 mg, 0.65 μmol) in a total concentration of 15 mM. This preparation was 8 M with respect to ethyl acetoacetate.
Cis-aconitic acid (18.6 mg, 0.11 mmol) was added to an Eppendorf tube and mixed with a 32.5 μl DMSO preparation (25 mM Radical 3 and 0.8 mM 3-Gd). This preparation was 2.5 M with respect to cis-aconitic acid.
Cis-aconitic anhydride (188 mg, 1.2 mmol) was added to an Eppendorf tube and mixed with 2.85 mg (2 μmol) of Radical 1 and 0.98 mg of a 83 μmol/g solution of 3-Gd. This preparation was 9 M with respect to cis-aconitic anhydride.
Succinic acid (42.1 mg, 0.35 mmol) was added to an Eppendorf tube and mixed and mixed with 92 mg of a DMSO preparation (20 mM Radical 3 and 0.8 mM 3-Gd). This preparation was 4 M with respect to succinic acid.
Succinic anhydride (21.5 mg, 0.21 mmol) was added to an Eppendorf tube and mixed with 21.8 mg of a DMSO solution of Radical 3 (30 mM) and of 3-Gd (1 mM). This preparation was 6 M with respect to succinic anhydride.
Succinic-(1)-ethyl ester (111 mg, 0.75 mmol) was added to an Eppendorf tube and mixed with the carboxylic acid form of Radical 2 (2.4 mg, 1.5 μmol) and 3-Gd (3.4 μl of a 14.5 mM solution in water). This preparation was 6 M with respect to succinic-(1)-ethyl ester.
(§1) L-Glutamine (50.9 mg, 0.35 mmol) was added to an Eppendorf tube and dissolved in 29 μl of 12 M NaOH and mixed with 1.7 mg of radical 1 and 3-Gd (2.3 μl of a 14.5 mM water stock solution). This preparation was 4 M with respect to L-glutamine.

[2] = target: T1, acylase from porcine kidney (Sus scrofa, UniProt P37111); assay: Enzymatic hydrolysis of the hyperpolarized N-acetyl amino acid with acylase, 13C-NMR time series; format: biochemical; details: phosphate buffer pH 7.3, 37° C.
T1 construct: an acylase from porcine kidney; from tissue; host or cells: porcine kidney
T1 sequence (P37111 2-407 limits assumed): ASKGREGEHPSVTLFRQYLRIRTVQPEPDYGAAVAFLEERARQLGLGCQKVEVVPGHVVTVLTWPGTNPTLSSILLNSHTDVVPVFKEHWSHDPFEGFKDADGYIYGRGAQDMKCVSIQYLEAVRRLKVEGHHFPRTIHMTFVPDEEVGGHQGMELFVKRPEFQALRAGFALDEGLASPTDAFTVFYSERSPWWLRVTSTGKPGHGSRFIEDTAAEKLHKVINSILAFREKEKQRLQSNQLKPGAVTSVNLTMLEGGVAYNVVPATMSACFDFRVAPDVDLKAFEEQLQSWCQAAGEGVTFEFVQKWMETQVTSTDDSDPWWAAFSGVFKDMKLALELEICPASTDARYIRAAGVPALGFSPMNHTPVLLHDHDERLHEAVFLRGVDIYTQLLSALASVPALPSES
Protocol: The sample was hyperpolarized for 60 min.
The 10 mm NMR tube contained a 1 ml phosphate solution of approximately 90 U of an acylase from porcine kidney.
35 mg of N-acetyl glycine (117.1 g/mol, 0.298 mmol) was dissolved in 26 μl 12 M NaOH. Heating, sonication and vortexing was applied to create a clear glassing solution. The total weight of the sample was 71 mg (50 μl weigh 65 mg). 1.05 mg Radical 1 and 1.5 μl of a 3-Gd stock solution ([…]) was added. The total N-acetyl glycine concentration in the sample was 5.5 M, the radical concentration was 13.5 mM, and the 3-Gd concentration was 0.4 mM.
The sample was dissolved in 7 ml 40 mM phosphate buffer (40 mM, pH 7.3). […] The 10 mm NMR tube contained a 500 μl phosphate solution of approximately 230 U of an acylase (5.2 mg) from porcine kidney.

[3] = Degradation / isomerisation of the substrate in DNP preparation and dissolution (NMR)
Protocol: The entire composition from example 2a was transferred from the Eppendorf tube to a sample cup and the sample cup was inserted into a DNP polariser. The composition was hyperpolarised under DNP conditions at 1.2 K in a 3.35 T magnetic field under irradiation with microwave (93.915 GHz). The sample was hyperpolarized for 75 min.
The sample was dissolved in 5 ml phosphate buffer pH 7.3 (40 mM+EDTA).
The solution was collected directly into a 10 mm NMR tube and transferred to a 14.1 T magnet where a 90 degree 1D 13C-NMR spectrum was recorded.
(§2) The sample was dissolved in 5 ml water with added NaOH (125 μl of 12 M). The solution was collected directly into a 10 mm NMR tube and transferred to a 14.1 T magnet (pH 13) where a time series of 64 five degree 1D 13C-NMR spectra were recorded with a total delay between the pulses of 3 s.
(§3) The sample was dissolved in 5 ml water with added NaOH (200 μl of 12 M). The solution was collected directly into a 10 mm NMR tube and transferred to a 14.1 T magnet (pH 12.8) where a time series of 5 degree 1D 13C-NMR spectra were recorded with a total delay between the pulses of 3 s.
The sample was dissolved in 5 ml 40 mM phosphate buffer pH 7.3+100 mg/l EDTA, thus resulting in an ester concentration of 20 mM. 1 ml of the ester solution was injected through a transfer line into a 10 mm NMR tube placed at 14.1 T and 37° C. The 10 mm NMR tube contained a 500 μl solution of approximately 270 U of a carboxylic-ester hydrolase from porcine liver. A time series of 10 degree 1D 13C-NMR spectra were recorded with a total delay between the pulses of 3 s.
The sample was dissolved in 5 ml phosphate buffer (40 mM, pH 7.3) with added 30 μl 12 M NaOH. […] The solution was collected directly into a 10 mm NMR tube and transferred to a 14.1 T magnet where a time series of 5 degree 1D 13C-NMR spectra were recorded with a total delay between the pulses of 3 s.
(§4) The sample was dissolved in 6 ml water with added NaOH (190 μl of 12 M). The solution was collected directly into a 10 mm NMR tube and transferred to a 14.1 T magnet (pH 12.8) where a time series of 64 five degree 1D 13C-NMR spectra were recorded with a total delay between the pulses of 3 s.
as §1
N-acetyl-L-glutamine (57.2 mg, 0.3 mmol) was added to an Eppendorf tube and dissolved in 25.3 μl of 12 M NaOH and mixed with 1.9 mg of radical 1 and 3-Gd (2.3 μl of a 14.5 mM water stock solution).

[4] = DNP solid-state polarization signal and build-up (1.2 K, 3.35 T); details: DNP at 1.2 K
Protocol: To this solution 1.1 mg (0.77 μmol) radical 1 was added. […] This entire sample was hyperpolarized under DNP conditions at 1.2 K in a 3.35 T magnetic field under irradiation with microwave (93.900 GHz) until the polarization was fully build-up. The polarization was monitored in solid state with small pulse angles (5 degree) collected every 300 s.
This entire sample was polarized under DNP conditions at 1.2 K in a 3.35 T magnetic field under irradiation with microwave (93.900 GHz) until the polarization was fully built-up. The polarization was monitored in solid state with small pulse angles (5 degree) collected every 300 s.
To this solution 0.77 mg (0.54 μmol) radical 1 was added. […] This entire sample was polarized under DNP conditions at 1.2 K in a 3.35 T magnetic field under irradiation with microwave (93.900 GHz) until the polarization was fully built-up. The polarization was monitored in solid state with small pulse angles (5 degree) collected every 300 s.
To this solution 1.65 mg (1.15 μmol) radical 1 was added. […] This entire sample was polarized under DNP conditions at 1.2 K in a 3.35 T magnetic field under irradiation with microwave (93.900 GHz) until the polarization was fully built-up. The polarization was monitored in solid state with small pulse angles (5 degree) collected every 300 s.
63.2 mg (0.33 mmol) of this sample was hyperpolarized under DNP conditions at 1.2 K in a 3.35 T magnetic field under irradiation with microwave (93.900 GHz) until the polarization was fully built-up.

[5] = Hydrolysis of the DNP hyperpolarized precursor on dissolution with strong base, followed by 13C-NMR time series; format: physicochemical; details: water with added NaOH
Protocol: The composition from example 1b (25 mg, 0.16 mmol) was transferred from the Eppendorf tube to a sample cup and the sample cup was inserted into a DNP polariser. The composition was hyperpolarised under DNP conditions at 1.2 K in a 3.35 T magnetic field under irradiation with microwave (93.915 GHz). The sample was hyperpolarized for 75 min.
The sample was dissolved in 4 ml water with added NaOH (50 μl of 12M solution). The pH of the dissolved sample was 12. The solution was collected directly into a 10 mm NMR tube and transferred to a 14.1 T magnet where a time series of 5 degree 1D 13C-NMR spectra were recorded with a total delay between the pulses of 1 s.
The composition from example is (33 mg, 0.25 mmol) was transferred from the Eppendorf tube to a sample cup and the sample cup was inserted into a DNP polariser. The composition was hyperpolarised under DNP conditions at 1.2 K in a 3.35 T magnetic field under irradiation with microwave (93.915 GHz). The sample was hyperpolarized for 90 min.
The sample was dissolved in 5 ml water with added NaOH (125 μl of 12M). The solution was collected directly into a 10 mm NMR tube and transferred to a 14.1 […]) T magnet where a time series of 5 degree 1D 13C-NMR spectra were recorded with a total delay between the pulses of 1 s.
The entire composition from example 2b was transferred from the Eppendorf tube to a sample cup and the sample cup was inserted into a DNP polariser. The composition was hyperpolarised under DNP conditions at 1.2 K in a 3.35 T magnetic field under irradiation with microwave (93.915 GHz). The sample was hyperpolarized for 3 hours.
as §2
The composition from example is (20.5 mg, 0.16 mmol) was transferred from the Eppendorf tube to a sample cup and the sample cup was inserted into a DNP polariser. The composition was hyperpolarised under DNP conditions at 1.2 K in a 3.35 T magnetic field under irradiation with microwave (93.915 GHz). The sample was hyperpolarized for 2 hours.
as §3
The composition from example 2b was melted on a water-bath and stirred with a magnetic stirrer. 45 mg of this preparation (0.29 mmol) was transferred from the Eppendorf tube to a sample cup and the sample cup was inserted into a DNP polariser. The composition was hyperpolarised under DNP conditions at 1.2 K in a 3.35 T magnetic field under irradiation with microwave (93.915 GHz). The sample was hyperpolarized for 90 min.
as §4

[6] = test system: carboxylic-ester hydrolase from porcine liver; assay: Enzymatic hydrolysis of the hyperpolarized ester with esterase, 13C-NMR time series; format: biochemical; details: approximately 270 U esterase, phosphate buffer pH 7.3, 37° C.
Source text: The ester was fully hydrolyzed to acetoacetate after 12s.

[7] = T1 relaxation time in solution at 14.1 T; format: physicochemical; details: 14.1 T and 37° C.
Protocol: The ester was only partly hydrolyzed.
The T1 of the hydrolyzed product, succinate is 33 s (14.1 T and 37° C.).
The sample was dissolved in 5 ml phosphate buffer (100 mM, pH 7) with added one equivalent HCl. The pH is 7.1 after dissolution.
The pH is 7.2 after dissolution.

[8] = Glass formation of the DNP preparation upon rapid freezing in liquid nitrogen; format: physicochemical; details: dissolved in heated water with Radical 1 and 3-Gd

SMILES: CC(=O)N[C@@H](CCC(N)=O)C(=O)O [N-acetyl-L-glutamine]
- Glass formation upon rapid freezing in liquid nitrogen [1]: formed a glass
- Time after which precursor was fully hydrolyzed ([2]; approximately 90 U acylase): 45 s
- Degradation in the DNP preparation [3]: does not degrade
- Degradation in the dissolution process ([3]; pH 7.3): does not degrade

SMILES: O=C1CCC([13C](=O)O)N1 (centres unmarked) [1-13C Pyroglutamic acid, reference compound]
- Glass formation upon rapid freezing in liquid nitrogen [1]: formed a glass
- Polarization build-up time constant [4]: 2000 s

SMILES: CCOC(=O)CC(C)=O [Ethyl acetoacetate]
- Glass formation upon rapid freezing [1]: formed a glass
- Precursor hydrolyzed ([5]; after 10 s, pH 12-13): approximately 20%
- Time after which ester was fully hydrolyzed [6]: 12 s

SMILES: C=C(CC(=O)OCC)[13C](=O)OCC [1-13C Itaconate diethyl ester]
- Glass formation upon rapid freezing [1]: formed a glass
- Polarization build-up time constant [4]: 2120 s

SMILES: CCO[13C](=O)C1CSC(=O)N1 (centres unmarked) [1-13C OTZ ethyl ester]
- Glass formation upon rapid freezing [1]: formed a glass
- Polarization build-up time constant [4]: 1925 s

SMILES: CC(=O)CC(=O)O [acetoacetate]
- Degradation (decarboxylation) of acetoacetate formed ([3]; after esterase hydrolysis of ethyl acetoacetate, pH 7.3): No degradation
- Degradation (decarboxylation) of acetoacetate formed ([3]; after hydrolysis of precursor with NaOH, pH 12.8-13): No substantial degradation
- T1 of the C1 position in the hydrolyzed product [7]: 32 s
- T1 of the hydrolyzed product [7]: 32 s

SMILES: O=C([O-])CCC(=O)C(=O)[O-].[Na+].[Na+] [2-oxoglutarate sodium salt]
- Glass formation upon rapid freezing in liquid nitrogen [8]: formed a glass

SMILES: CC(=O)NCC(=O)O [N-acetyl glycine]
- Time after which precursor was fully hydrolyzed ([2]; approximately 230 U acylase): 30 s

SMILES: C=C(CC(=O)O)[13C](=O)O [1-13C Itaconic acid, reference compound]
- Glass formation upon rapid freezing in liquid nitrogen [1]: formed a glass
- Polarization build-up time constant [4]: 1790 s

SMILES: CCOC(=O)C1CCC(=O)N1 (centres unmarked) [1-13C pyroglutamic ethyl ester]
- Glass formation upon rapid freezing [1]: formed a glass
- Precursor hydrolyzed ([5]; in less than 10 s, pH 11-12.6): at least 95%
- Polarization build-up time constant [4]: 2070 s

SMILES: O=C1N[C@H]([13C](=O)O)CS1 [1-13C OTZ, 1-13C-L-oxothiazolidine-4-carboxylic acid, reference compound]
- Glass formation upon rapid freezing in liquid nitrogen [1]: formed a glass
- Polarization build-up time constant [4]: 3500 s
